Reference: patent US9149038B2, “4-amino-6-(heterocyclic)picolinates and 6-amino-2-(heterocyclic)pyrimidine-4-carboxylates and their use as herbicides” (Dow AgroSciences LLC, priority 2013, dated 2015)
Read-outs that look alike come from different tables or passages of the source.

Assays:
[1] = system: Key Broadleaf Weed and Crop Species; test: Post-Emergent Test II: postemergent herbicidal activity, visual rating after 14 d (Table 7); format: in vivo; conditions: post-emergence, 336 h; for pest or weed control at 35 g/ha: 35 g ai/ha; for pest or weed control at 70 g/ha: 70 g ai/ha; for pest or weed control at 140 g/ha: 140 g ai/ha
In short: (§1)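 Visual scoring at 14 d, 0 (no injury) to 100 (complete kill), relative to untreated plants. Postemergent overhead track-sprayer application, 187 L/ha, at a top rate plus serial ½×–1/16× rates, to plants grown 7–21 d at about 23–29° C day under a 15 h photoperiod, then subirrigated.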

[2] = system: Key Grass and Sedge Weeds as well as Grass Crops; test: Post-Emergent Test II: postemergent herbicidal activity, visual rating after 14 d (Table 8); format: in vivo; conditions: post-emergence, 336 h; for pest or weed control at 35 g/ha: 35 g ai/ha; for pest or weed control at 70 g/ha: 70 g ai/ha; for pest or weed control at 140 g/ha: 140 g ai/ha
In short: as §1

[3] = lambsquarters (Chenopodium album), read-out: Visual Growth Reduction (%) 14 Days After Application CHEAL
[4] = oilseed rape, canola (Brassica napus), read-out: Visual Growth Reduction (%) 14 Days After Application BRSNN
[5] = redroot pigweed (Amaranthus retroflexus), read-out: Visual Growth Reduction (%) 14 Days After Application AMARE
[6] = sunflower (Helianthus annuus), read-out: Visual Growth Reduction (%) 14 Days After Application HELAN
[7] = velvetleaf (Abutilon theophrasti), read-out: Visual Growth Reduction (%) 14 Days After Application ABUTH
[8] = wild poinsettia (Euphorbia heterophylla), read-out: Visual Growth Reduction (%) 14 Days After Application EPHHL
[9] = barnyardgrass (Echinochloa crus-galli), read-out: Visual Growth Reduction (%) 14 Days After Application ECHCG
[10] = giant foxtail (Setaria faberi), read-out: Visual Growth Reduction (%) 14 Days After Application SETFA
[11] = maize, corn (Zea mays), read-out: Visual Growth Reduction (%) 14 Days After Application ZEAMX
[12] = rice (Oryza sativa), read-out: Visual Growth Reduction (%) 14 Days After Application ORYSA
[13] = wheat, spring (Triticum aestivum), read-out: Visual Growth Reduction (%) 14 Days After Application TRZAS
[14] = yellow nutsedge (Cyperus esculentus), read-out: Visual Growth Reduction (%) 14 Days After Application CYPES

SMILES	pest or weed control at 35 g/ha [1, 3]	pest or weed control at 70 g/ha [1, 3]	pest or weed control at 140 g/ha [1, 3]	pest or weed control at 35 g/ha [1, 4]	pest or weed control at 70 g/ha [1, 4]	pest or weed control at 140 g/ha [1, 4]	pest or weed control at 35 g/ha [1, 5]	pest or weed control at 70 g/ha [1, 5]	pest or weed control at 140 g/ha [1, 5]	pest or weed control at 35 g/ha [1, 6]	pest or weed control at 70 g/ha [1, 6]	pest or weed control at 140 g/ha [1, 6]	pest or weed control at 35 g/ha [1, 7]	pest or weed control at 70 g/ha [1, 7]	pest or weed control at 140 g/ha [1, 7]	pest or weed control at 35 g/ha [1, 8]	pest or weed control at 70 g/ha [1, 8]	pest or weed control at 140 g/ha [1, 8]	pest or weed control at 35 g/ha [2, 9]	pest or weed control at 70 g/ha [2, 9]	further results
COC(=O)c1nc(-c2ccc3c(c2C)OC(F)(F)O3)cc(N)c1Cl [Compound 35]	0 to 29%	60 to 74%	85 to 94%	30 to 44%	45 to 59%	60 to 74%	85 to 94%	95 to 100%	95 to 100%	60 to 74%	85 to 94%	95 to 100%	0 to 29%	75 to 84%	75 to 84%	0 to 29%	0 to 29%	0 to 29%	0 to 29%	0 to 29%	pest or weed control at 140 g/ha [2, 9]: 0 to 29%; pest or weed control at 35 g/ha [2, 10]: 0 to 29%; pest or weed control at 70 g/ha [2, 10]: 0 to 29%; pest or weed control at 140 g/ha [2, 10]: 0 to 29%; pest or weed control at 35 g/ha [2, 11]: 0 to 29%; pest or weed control at 70 g/ha [2, 11]: 0 to 29%; pest or weed control at 140 g/ha [2, 11]: 30 to 44%; pest or weed control at 35 g/ha [2, 12]: 0 to 29%; pest or weed control at 70 g/ha [2, 12]: 0 to 29%; pest or weed control at 140 g/ha [2, 12]: 0 to 29%; pest or weed control at 35 g/ha [2, 13]: 0 to 29%; pest or weed control at 70 g/ha [2, 13]: 0 to 29%; pest or weed control at 140 g/ha [2, 13]: 0 to 29%; pest or weed control at 35 g/ha [2, 14]: 0 to 29%; pest or weed control at 70 g/ha [2, 14]: 30 to 44%; pest or weed control at 140 g/ha [2, 14]: 95 to 100%
COC(=O)c1nc(-c2ccc3c(c2F)OC(F)(F)O3)cc(N)c1Cl [Compound 37, Methyl 4-amino-3-chloro-6-(2,2,4-trifluorobenzo-[d][1,3]dioxol-5-yl)picolinate]	95 to 100%	95 to 100%	95 to 100%	85 to 94%	95 to 100%	95 to 100%	85 to 94%	95 to 100%	95 to 100%	0 to 29%	30 to 44%	75 to 84%	95 to 100%	95 to 100%	95 to 100%	95 to 100%	95 to 100%	95 to 100%	95 to 100%	95 to 100%	pest or weed control at 140 g/ha [2, 9]: 95 to 100%; pest or weed control at 35 g/ha [2, 10]: 60 to 74%; pest or weed control at 70 g/ha [2, 10]: 95 to 100%; pest or weed control at 140 g/ha [2, 10]: 95 to 100%; pest or weed control at 35 g/ha [2, 11]: 60 to 74%; pest or weed control at 70 g/ha [2, 11]: 75 to 84%; pest or weed control at 140 g/ha [2, 11]: 85 to 94%; pest or weed control at 35 g/ha [2, 12]: 0 to 29%; pest or weed control at 70 g/ha [2, 12]: 0 to 29%; pest or weed control at 140 g/ha [2, 12]: 0 to 29%; pest or weed control at 35 g/ha [2, 13]: 0 to 29%; pest or weed control at 70 g/ha [2, 13]: 0 to 29%; pest or weed control at 140 g/ha [2, 13]: 0 to 29%; pest or weed control at 35 g/ha [2, 14]: 95 to 100%; pest or weed control at 70 g/ha [2, 14]: 95 to 100%; pest or weed control at 140 g/ha [2, 14]: 95 to 100%
COC(=O)c1nc(-c2cc3c(cc2OC)OC(F)(F)O3)cc(N)c1Cl [Compound 38]	0 to 29%	0 to 29%	0 to 29%	0 to 29%	0 to 29%	0 to 29%	0 to 29%	60 to 74%	60 to 74%	0 to 29%	0 to 29%	60 to 74%	0 to 29%	0 to 29%	0 to 29%	0 to 29%	0 to 29%	0 to 29%	0 to 29%	0 to 29%	pest or weed control at 140 g/ha [2, 9]: 0 to 29%; pest or weed control at 35 g/ha [2, 10]: 0 to 29%; pest or weed control at 70 g/ha [2, 10]: 0 to 29%; pest or weed control at 140 g/ha [2, 10]: 0 to 29%; pest or weed control at 35 g/ha [2, 11]: 0 to 29%; pest or weed control at 70 g/ha [2, 11]: 0 to 29%; pest or weed control at 140 g/ha [2, 11]: 0 to 29%; pest or weed control at 35 g/ha [2, 12]: 0 to 29%; pest or weed control at 70 g/ha [2, 12]: 0 to 29%; pest or weed control at 140 g/ha [2, 12]: 0 to 29%; pest or weed control at 35 g/ha [2, 13]: 0 to 29%; pest or weed control at 70 g/ha [2, 13]: 0 to 29%; pest or weed control at 140 g/ha [2, 13]: 0 to 29%; pest or weed control at 35 g/ha [2, 14]: 0 to 29%; pest or weed control at 70 g/ha [2, 14]: 0 to 29%; pest or weed control at 140 g/ha [2, 14]: 0 to 29%
